Measured values published in ChEMBL document CHEMBL1150976, “The selectivity of protein kinase inhibitors: a further update” (Biochem J, 2007).

Tests used:
Rattus norvegicus = species on record: Rattus norvegicus; assay: Percentage AMPK activity remaining in the presence of 0.01uM inhibitor
[1] = target: Rho-associated protein kinase 2 (Homo sapiens) (UniProt O75116); assay: Percentage ROCK2 activity remaining in the presence of 0.01uM inhibitor
[2] = target: Serine/threonine-protein kinase PAK 4 (Homo sapiens, UniProt O96013); assay: Percentage PAK4 activity remaining in the presence of 0.01uM inhibitor
[3] = target: Proto-oncogene tyrosine-protein kinase LCK (Mus musculus) (UniProt P06240); assay: Percentage Lck activity remaining in the presence of 0.01uM inhibitor
[4] = target: Calcium/calmodulin-dependent protein kinase type 1 (Homo sapiens) (UniProt Q14012); assay: Percentage CaMK1 activity remaining in the presence of 0.01uM inhibitor
[5] = target: Serine/threonine-protein kinase Nek7 (Homo sapiens) (UniProt Q8TDX7); assay: Percentage NEK7 activity remaining in the presence of 0.01uM inhibitor
[6] = target: T1, Serine/threonine-protein kinase BRSK2 (Homo sapiens) (UniProt Q8IWQ3); assay: Percentage BRSK2 activity remaining in the presence of 0.01uM inhibitor
T1 sequence (whole entry): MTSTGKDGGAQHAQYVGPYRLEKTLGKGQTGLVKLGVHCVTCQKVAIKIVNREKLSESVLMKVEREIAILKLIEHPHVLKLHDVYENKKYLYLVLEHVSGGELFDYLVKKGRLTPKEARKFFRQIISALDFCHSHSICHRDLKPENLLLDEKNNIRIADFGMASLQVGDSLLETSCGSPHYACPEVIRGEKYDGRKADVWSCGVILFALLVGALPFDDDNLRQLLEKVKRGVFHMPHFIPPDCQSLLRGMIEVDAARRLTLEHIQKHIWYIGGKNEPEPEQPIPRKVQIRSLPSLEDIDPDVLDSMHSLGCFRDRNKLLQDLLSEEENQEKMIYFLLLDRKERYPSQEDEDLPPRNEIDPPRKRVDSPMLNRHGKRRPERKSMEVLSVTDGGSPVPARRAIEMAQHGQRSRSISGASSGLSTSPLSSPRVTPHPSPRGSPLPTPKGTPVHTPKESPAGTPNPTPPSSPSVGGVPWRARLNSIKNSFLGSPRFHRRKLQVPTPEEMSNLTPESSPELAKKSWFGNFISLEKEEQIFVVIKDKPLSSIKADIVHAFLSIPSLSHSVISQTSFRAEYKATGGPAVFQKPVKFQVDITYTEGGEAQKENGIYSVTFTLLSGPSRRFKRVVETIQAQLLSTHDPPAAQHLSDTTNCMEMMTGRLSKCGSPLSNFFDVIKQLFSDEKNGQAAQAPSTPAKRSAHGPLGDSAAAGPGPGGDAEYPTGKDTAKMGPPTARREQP

[7] = target: T2, Serine/threonine-protein kinase 3 (Homo sapiens) (UniProt Q13188); assay: Percentage MST2 activity remaining in the presence of 0.01uM inhibitor
T2 sequence (whole entry): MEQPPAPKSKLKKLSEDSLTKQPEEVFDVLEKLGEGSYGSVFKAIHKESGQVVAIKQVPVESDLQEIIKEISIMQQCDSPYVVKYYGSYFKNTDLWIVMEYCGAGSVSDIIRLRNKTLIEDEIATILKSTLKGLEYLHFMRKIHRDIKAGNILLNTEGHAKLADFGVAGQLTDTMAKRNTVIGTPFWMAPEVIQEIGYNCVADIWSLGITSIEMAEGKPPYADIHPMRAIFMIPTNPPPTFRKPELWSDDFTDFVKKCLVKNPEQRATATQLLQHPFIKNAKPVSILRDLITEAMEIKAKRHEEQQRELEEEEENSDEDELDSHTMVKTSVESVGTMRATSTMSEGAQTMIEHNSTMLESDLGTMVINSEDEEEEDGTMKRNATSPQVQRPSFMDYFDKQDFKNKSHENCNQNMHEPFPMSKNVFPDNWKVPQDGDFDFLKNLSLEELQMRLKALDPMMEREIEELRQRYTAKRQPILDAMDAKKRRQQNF

[8] = target: Serine/threonine-protein kinase pim-3 (Homo sapiens, UniProt Q86V86); assay: Percentage PIM3 activity remaining in the presence of 0.01uM inhibitor
[9] = target: T3, MAP kinase-activated protein kinase 5 (Homo sapiens) (UniProt Q8IW41); assay: Percentage PRAK activity remaining in the presence of 0.01uM inhibitor
T3 sequence (whole entry): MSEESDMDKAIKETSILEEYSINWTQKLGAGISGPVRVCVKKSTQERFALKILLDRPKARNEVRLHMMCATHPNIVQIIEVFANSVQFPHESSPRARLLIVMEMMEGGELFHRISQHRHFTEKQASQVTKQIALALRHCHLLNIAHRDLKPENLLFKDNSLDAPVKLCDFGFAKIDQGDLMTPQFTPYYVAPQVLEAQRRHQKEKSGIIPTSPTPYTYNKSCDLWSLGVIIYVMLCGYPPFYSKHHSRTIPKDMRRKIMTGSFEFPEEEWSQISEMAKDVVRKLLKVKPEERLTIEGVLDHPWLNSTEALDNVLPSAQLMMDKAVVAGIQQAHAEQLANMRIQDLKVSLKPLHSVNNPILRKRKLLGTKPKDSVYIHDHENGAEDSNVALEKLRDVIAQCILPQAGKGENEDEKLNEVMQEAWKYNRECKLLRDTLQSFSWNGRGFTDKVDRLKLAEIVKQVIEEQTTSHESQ

[10] = target: Glycogen synthase kinase-3 beta (Homo sapiens, UniProt P49841); assay: Percentage GSK3-beta activity remaining in the presence of 0.01uM inhibitor
Glycogen synthase kinase-3 beta, sequence (P49841 whole entry, looked up): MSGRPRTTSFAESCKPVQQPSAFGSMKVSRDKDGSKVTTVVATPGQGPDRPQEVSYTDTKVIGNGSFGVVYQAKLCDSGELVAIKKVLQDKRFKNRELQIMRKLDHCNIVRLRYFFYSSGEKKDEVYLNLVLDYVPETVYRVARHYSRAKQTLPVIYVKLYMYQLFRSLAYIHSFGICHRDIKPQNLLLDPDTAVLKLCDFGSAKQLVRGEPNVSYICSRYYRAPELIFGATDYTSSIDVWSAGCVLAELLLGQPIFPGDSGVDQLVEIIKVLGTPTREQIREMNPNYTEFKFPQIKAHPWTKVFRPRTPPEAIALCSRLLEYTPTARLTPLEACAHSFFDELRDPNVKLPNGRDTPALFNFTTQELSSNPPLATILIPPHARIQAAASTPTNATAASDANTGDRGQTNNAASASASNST

Rho-associated protein kinase 2 (Homo sapiens), sequence (O75116 whole entry, looked up): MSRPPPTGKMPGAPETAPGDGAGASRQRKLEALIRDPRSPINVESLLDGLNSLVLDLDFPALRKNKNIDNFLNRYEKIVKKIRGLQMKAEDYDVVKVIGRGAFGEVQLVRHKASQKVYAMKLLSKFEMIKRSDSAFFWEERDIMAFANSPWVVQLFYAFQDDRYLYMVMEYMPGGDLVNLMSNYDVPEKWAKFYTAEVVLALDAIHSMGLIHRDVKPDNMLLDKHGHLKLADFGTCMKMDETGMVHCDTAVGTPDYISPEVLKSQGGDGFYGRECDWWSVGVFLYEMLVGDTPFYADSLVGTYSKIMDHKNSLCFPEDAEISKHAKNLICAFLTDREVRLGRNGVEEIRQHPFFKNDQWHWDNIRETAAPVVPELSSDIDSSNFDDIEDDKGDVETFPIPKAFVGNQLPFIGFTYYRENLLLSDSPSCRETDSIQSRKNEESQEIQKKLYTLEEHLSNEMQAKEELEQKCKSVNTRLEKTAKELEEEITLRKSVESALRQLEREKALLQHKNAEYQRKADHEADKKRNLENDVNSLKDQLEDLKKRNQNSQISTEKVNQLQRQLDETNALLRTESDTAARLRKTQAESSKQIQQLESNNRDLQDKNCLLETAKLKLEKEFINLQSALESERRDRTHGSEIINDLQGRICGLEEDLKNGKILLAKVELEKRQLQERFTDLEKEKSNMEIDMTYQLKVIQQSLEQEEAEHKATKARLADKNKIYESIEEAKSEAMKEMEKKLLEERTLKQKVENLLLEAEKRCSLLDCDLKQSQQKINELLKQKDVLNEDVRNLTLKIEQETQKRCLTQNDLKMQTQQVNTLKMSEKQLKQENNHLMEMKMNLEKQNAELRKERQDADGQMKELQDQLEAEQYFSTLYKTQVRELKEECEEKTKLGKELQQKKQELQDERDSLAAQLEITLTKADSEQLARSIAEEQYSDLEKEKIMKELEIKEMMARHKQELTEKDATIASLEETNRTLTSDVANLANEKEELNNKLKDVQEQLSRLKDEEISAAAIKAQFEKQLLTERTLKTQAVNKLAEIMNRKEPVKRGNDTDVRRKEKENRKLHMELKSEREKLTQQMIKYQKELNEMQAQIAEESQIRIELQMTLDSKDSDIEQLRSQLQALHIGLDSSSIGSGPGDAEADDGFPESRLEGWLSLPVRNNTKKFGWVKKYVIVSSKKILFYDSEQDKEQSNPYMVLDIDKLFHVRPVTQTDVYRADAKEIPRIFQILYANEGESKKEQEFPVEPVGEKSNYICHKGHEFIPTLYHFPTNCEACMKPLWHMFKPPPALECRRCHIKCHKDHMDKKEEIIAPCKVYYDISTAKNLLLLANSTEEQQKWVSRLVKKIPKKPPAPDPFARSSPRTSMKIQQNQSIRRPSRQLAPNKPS
Serine/threonine-protein kinase Nek7 (Homo sapiens), sequence (Q8TDX7 whole entry, looked up): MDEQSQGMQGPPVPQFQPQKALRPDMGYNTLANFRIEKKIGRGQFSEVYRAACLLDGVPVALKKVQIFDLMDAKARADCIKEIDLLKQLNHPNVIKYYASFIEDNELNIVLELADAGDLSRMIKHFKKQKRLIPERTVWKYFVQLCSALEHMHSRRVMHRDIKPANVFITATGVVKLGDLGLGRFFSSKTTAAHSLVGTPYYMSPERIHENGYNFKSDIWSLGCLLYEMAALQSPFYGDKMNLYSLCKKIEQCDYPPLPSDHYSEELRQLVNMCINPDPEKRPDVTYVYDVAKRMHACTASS
Proto-oncogene tyrosine-protein kinase LCK (Mus musculus), sequence (P06240 2-509 limits assumed): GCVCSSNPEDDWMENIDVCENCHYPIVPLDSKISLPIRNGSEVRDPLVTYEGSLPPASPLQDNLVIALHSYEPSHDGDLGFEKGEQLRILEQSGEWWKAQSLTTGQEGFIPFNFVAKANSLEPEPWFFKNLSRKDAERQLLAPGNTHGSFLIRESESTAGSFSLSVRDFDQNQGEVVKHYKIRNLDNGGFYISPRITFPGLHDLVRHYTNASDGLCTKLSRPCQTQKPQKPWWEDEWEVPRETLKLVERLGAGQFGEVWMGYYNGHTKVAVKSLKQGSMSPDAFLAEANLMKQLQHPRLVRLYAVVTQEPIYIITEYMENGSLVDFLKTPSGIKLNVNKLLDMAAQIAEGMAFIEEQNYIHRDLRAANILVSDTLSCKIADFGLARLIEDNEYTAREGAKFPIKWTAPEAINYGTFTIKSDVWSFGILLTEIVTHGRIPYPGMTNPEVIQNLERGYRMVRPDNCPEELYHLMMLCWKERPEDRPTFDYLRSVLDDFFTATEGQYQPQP
Calcium/calmodulin-dependent protein kinase type 1 (Homo sapiens), sequence (Q14012 whole entry, looked up): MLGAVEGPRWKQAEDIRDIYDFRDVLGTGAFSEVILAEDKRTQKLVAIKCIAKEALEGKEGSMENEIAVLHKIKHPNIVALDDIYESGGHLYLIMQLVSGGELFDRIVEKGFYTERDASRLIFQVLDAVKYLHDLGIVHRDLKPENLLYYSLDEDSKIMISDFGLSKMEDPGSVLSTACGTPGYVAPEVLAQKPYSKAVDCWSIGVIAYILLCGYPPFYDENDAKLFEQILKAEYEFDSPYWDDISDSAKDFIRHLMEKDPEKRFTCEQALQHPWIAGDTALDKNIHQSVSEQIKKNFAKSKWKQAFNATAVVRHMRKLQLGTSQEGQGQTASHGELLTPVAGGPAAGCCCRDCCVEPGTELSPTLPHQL
Serine/threonine-protein kinase PAK 4, sequence (O96013 whole entry, looked up): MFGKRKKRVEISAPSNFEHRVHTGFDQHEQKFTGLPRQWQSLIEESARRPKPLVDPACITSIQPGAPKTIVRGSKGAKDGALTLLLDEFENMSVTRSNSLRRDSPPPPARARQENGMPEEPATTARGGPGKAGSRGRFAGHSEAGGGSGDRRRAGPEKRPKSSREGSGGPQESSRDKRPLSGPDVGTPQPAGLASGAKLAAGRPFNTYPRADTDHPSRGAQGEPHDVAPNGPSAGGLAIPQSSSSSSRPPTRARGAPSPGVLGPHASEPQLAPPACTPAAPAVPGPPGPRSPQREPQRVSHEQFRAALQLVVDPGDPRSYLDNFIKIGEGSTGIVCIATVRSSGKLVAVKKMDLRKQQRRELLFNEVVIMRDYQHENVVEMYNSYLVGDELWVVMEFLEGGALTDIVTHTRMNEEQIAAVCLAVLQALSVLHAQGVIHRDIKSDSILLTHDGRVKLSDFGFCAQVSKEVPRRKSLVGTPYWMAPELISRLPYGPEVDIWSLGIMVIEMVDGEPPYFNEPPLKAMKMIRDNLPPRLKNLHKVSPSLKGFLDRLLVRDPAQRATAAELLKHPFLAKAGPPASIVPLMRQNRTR

SMILES | Activity (Rattus norvegicus) [%] | Activity [1] [%] | Activity [2] [%] | Activity [3] [%] | Activity [4] [%] | Activity [5] [%] | Activity [6] [%] | Activity [7] [%] | Activity [8] [%] | Activity [9] [%] | Activity [10] [%] | Activity ([1]; filed as antagonist) [%] | Activity (Rattus norvegicus; filed as antagonist) [%] | Activity ([2]; filed as antagonist) [%] | Activity ([3]; filed as antagonist) [%] | Activity ([6]; filed as antagonist) [%] | Activity ([7]; filed as antagonist) [%] | Activity ([8]; filed as antagonist) [%]
O=C(NCCCNc1nc(Nc2cccc(NC(=O)N3CCCC3)c2)ncc1I)c1cccs1 | 52 | 90 | 91 | 97 | 86 | 111 | 92 | 96 | 96 | 97 | 82 | – | – | – | – | – | – | –
Cc1n[nH]c2ccc(-c3cncc(OC[C@@H](N)Cc4c[nH]c5ccccc45)c3)cc12 | 84 | – | 99 | 97 | 89 | 86 | 88 | 76 | 54 | 107 | 81 | 48 | – | – | – | – | – | –
CN[C@@H]1C[C@H]2O[C@@](C)([C@@H]1OC)n1c3ccccc3c3c4c(c5c6ccccc6n2c5c31)C(=O)N[C@H]4O (stereo in doubt) | – | 86 | – | – | 86 | 99 | – | – | – | 83 | 77 | – | 9 | 33 | 50 | 27 | 2 | 8
